Reference: article PMC11420944, “Targeted Degradation of Protein Kinase A via a Stapled Peptide PROTAC” (ACS Chemical Biology, 2024)

Experiments:
phospho VASP = assay: VASP phosphorylation in forskolin-stimulated cells, Western blot; type: cell-based; details: MDA-MB-231 cells, 50 µM H89 added 30 min before 50 µM forskolin (30 min); n = 3
Experimental: (§1) Next, we sought to assess whether StIP-TAC could also downregulate PKAc signaling in cells. For this experiment, cells were treated with forskolin to stimulate PKAc activity. Cells were either treated with DMSO, the small molecule PKAc inhibitor H89, StIP-TAC alone, or StIP-TAC with SAINT protein (Figure 4; Figure S7). […] (Figure 4C,D). A known PKA substrate, vasodilator-stimulated phosphoprotein (VASP),[42] was also probed for PKA-mediated phosphorylation (Figure S8).
Cell-based PROTAC activity assays. MDA-MB-231 cells were grown on 6-well tissue culture plates (BD Biosciences). Cells were serum-starved for 24 hours in serum-free RPMI with penicillin/streptomycin, glucose, and L-glutamine. StIP-TAC treatment was prepared with SAINT-Protein reagent according to manufacturer protocol (Synvolux) and added to cells at a final concentration of 10 µM for 5 hours. For phosphorylation studies, cells were additionally stimulated with 50 µM forskolin for 30 minutes before harvesting. For H89-treated cells, 50 μM H89 was added 30 minutes before stimulation with forskolin. For degradation studies, cells were co-treated with 10 μM MG-132 (Selleck Chemicals) alongside StIP-TAC and DMSO treatments for the duration of the 5-hour experiment. […] Cells were harvested in Laemmli sample buffer, boiled for 10 minutes and protein levels were analyzed via western blotting. […]
Biosciences). Western blot fluorescence detection was performed using a LI-COR Odyssey Fc imaging system. […]
Table S1. Peptide and PROTAC sequences, expected and observed masses determined via HPLC-MS. […]
Figure S8: StIP-TAC inhibits phosphorylation of the PKA substrate VASP. […] (B) Densitometric quantification of Western blots […]
reduction in phosphorylated VASP in cells treated with H89 and StIP-TAC with SAINT Protein reagent. Quantification was performed via Li-COR Image Studio. **p=0.010; ***p<0.001; ns, not significant as assessed by one-way ANOVA and Bonferroni’s multiple comparisons test. […]

[1] = test system: phospho serine/threonine PKA substrate; assay: PKA substrate phosphorylation in forskolin-stimulated cells, Western blot; type: cell-based; details: MDA-MB-231 cells, 50 µM H89 added 30 min before 50 µM forskolin (30 min); n = 3
Experimental: as §1
Cell-based PROTAC activity assays. MDA-MB-231 cells were grown on 6-well tissue culture plates (BD Biosciences). Cells were serum-starved for 24 hours in serum-free RPMI with penicillin/streptomycin, glucose, and L-glutamine. StIP-TAC treatment was prepared with SAINT-Protein reagent according to manufacturer protocol (Synvolux) and added to cells at a final concentration of 10 µM for 5 hours. For phosphorylation studies, cells were additionally stimulated with 50 µM forskolin for 30 minutes before harvesting. For H89-treated cells, 50 μM H89 was added 30 minutes before stimulation […]
with forskolin. […]
Cells were harvested in Laemmli sample buffer, boiled for 10 minutes and protein levels were analyzed via western blotting. For control experiments, cells were incubated for 5 hours with an equivalent volume of DMSO or SAINT-Protein to the above studies, with or without forskolin stimulation.
To assess PKA degradation, anti-PKAc (1:1000, BD Biosciences) and anti-GAPDH (1:1000, Proteintech) primary antibodies were used. To assess PKA substrate phosphorylation, anti-phospho serine/threonine PKA substrate (1:1000, Cell Signaling […]
Incubation with primary antibodies was followed by incubation with anti-mouse […]
Biosciences). Western blot fluorescence detection was performed using a LI-COR Odyssey Fc imaging system. Data analysis was performed using GraphPad Prism […]
Figure S7: Western blots for PKA substrate phosphorylation. Experiments were performed in triplicate (n=3) in low passage number MDA-MB-231 cells (ATCC HTB-26). Following t = 24 hour starvation in serum-free RPMI media, cells were treated for t = 5 hours with DMSO, SAINT-Protein Lipid reagent alone, 10 µM StIP-TAC, or 10 µM StIP-TAC incubated with SAINT-Protein Lipid reagent per manufacturer instructions. For forskolin-stimulated treatments, cells were incubated for 30 minutes with 50 µM forskolin […]
prior to harvesting in Laemmli sample buffer. For H89-inhibited treatments, cells were incubated for 30 minutes prior to forskolin stimulation with 50 µM H89. Lysates were run via SDS-PAGE and Western blotting performed anti-phospho serine/threonine PKA substrate (1:1000, Cell Signaling Technology) and anti-tubulin (1:1000, Cell Signaling Technology) primary antibodies.

[2] = target: recombinant human DNAJB1-PKAc (Homo sapiens, UniProt P17612+P25685); assay: Fluorescence polarization direct binding of fluorescein-labeled peptides; details: FP, N-terminally FAM-labeled peptide 0.5 nM, DNAJ-PKA-C 3 µM to 30 pM, 20 mM MOPS pH 7, 150 mM NaCl, 0.005% CHAPS, 1 mM ATP, 10 mM MgCl2, room temperature, mean and SD of three independent measurements
Experimental: To determine the binding affinity of the truncated library toward the catalytic subunit of PKA, fluorescence polarization (FP) experiments were performed using N-terminally fluorescein-labeled PKI-derived peptides incubated with a range of concentrations of recombinant human DNAJB1-PKAc (Figure 2). The DNAJB1-PKAc chimera is a clinically relevant protein identified in fibrolamellar hepatocellular carcinoma (FL-HCC) patients that combines the chaperonin-binding domain of heat-shock protein 40 (HSP40/DNAJ) with the catalytic (c) subunit of PKA.[34] The active site of the DNAJB1-PKAc protein is identical to native PKAc and retains inhibition by PKI with a nearly identical binding conformation.[35] […] To generate the StIP-TAC, several PEG linker lengths were conjugated with the thalidomide-derived Cereblon Ligand 1 and preliminarily tested (PEG3 to PEG9; Figure S2). All PEG lengths appeared to yield compound activity, and thus the PEG8 linker was chosen to provide greater flexibility to the overall compound. […]
Fluorescence Polarization (FP) Assay. Binding studies for the truncated peptide library to DNAJ-PKA-C were performed according to protocols described previously 21.
FAM-labeled peptides were plated to a final concentration of 0.5 nM after the addition of protein in 384-well microtiter plates. A tenfold dilution series of DNAJ-PKA-C were mixed in peptide wells to have 6 final concentrations ranging from 3 µM to 30 pM.
Assays were performed using FP buffer (20 mM MOPS pH 7, 150 mM NaCl, 0.005% CHAPS, 1 mM ATP, 10 mM MgCl2) at room temperature. All data were obtained using a BioTek Synergy 2 microplate reader using the following settings: excitation/emission/dichroic filters: 485-20 nm/528-20 nm/510 nm, 50 flashes per well, settling time 0.1 s. Non-linear regression (sigmoidal dose-response) was performed using GraphPad Prism 6.01 on FP signals plotted against log-scale protein concentrations to determine equilibrium dissociation constants (KD). Data analysis was performed using GraphPad Prism (Dotmatics). […]

| Kd [2] [nM] | Kd ([2]; SD) [nM] | Compound | phosphorylated VASP (phospho VASP) | total PKA substrate phosphorylation [1] |
| --- | --- | --- | --- | --- |
|  |  | O=S(=O)(NCCNC/C=C/c1ccc(Br)cc1)c1cccc2cnccc12 [H89, reference compound] | statistically significant reduction | statistically significant reduction |
| 3 to 4 | 3.5 ± 0.1 | CC[C@H](C)[C@H](NC(=O)[C@H](C)NC(=O)[C@H](CC(N)=O)NC(=O)[C@H](CCCNC(=N)N)NC(=O)[C@H](CCCNC(=N)N)NC(=O)CNC(=O)[C@@H](NC(=O)[C@H](CCCNC(=N)N)NC(=O)CNC(=O)[C@H](CO)NC(=O)[C@H](C)NC(=O)[C@@H](NC(=O)[C@H](Cc1ccccc1)NC(=O)[C@H](CC(=O)O)NC(=O)[C@]1(C)CCCC=CCCC[C@](C)(NC(=O)COCCOCCOCCNC(=O)c2ccc3c(c2)C(=O)OC32c3ccc(O)cc3Oc3cc(O)ccc32)C(=O)N[C@@H]([C@@H](C)O)C(=O)N[C@@H]([C@@H](C)O)C(=O)N[C@@H](Cc2ccc(O)cc2)C(=O)N1)[C@@H](C)CC)[C@@H](C)O)C(N)=O [StIP-3] |  |  |
| 3 to 4 | 3.2 ± 0.1 | CC[C@H](C)[C@H](NC(=O)[C@H](C)NC(=O)[C@H](CC(N)=O)NC(=O)[C@H](CCCNC(=N)N)NC(=O)[C@H](CCCNC(=N)N)NC(=O)CNC(=O)[C@@H](NC(=O)[C@H](CCCNC(=N)N)NC(=O)CNC(=O)[C@H](CO)NC(=O)[C@H](C)NC(=O)[C@@H](NC(=O)[C@H](Cc1ccccc1)NC(=O)[C@H](CC(=O)O)NC(=O)[C@]1(C)CCCC=CCCC[C@](C)(NC(=O)[C@@H](NC(=O)[C@H](CC(=O)O)NC(=O)[C@@H](NC(=O)COCCOCCOCCNC(=O)c2ccc3c(c2)C(=O)OC32c3ccc(O)cc3Oc3cc(O)ccc32)[C@@H](C)O)C(C)C)C(=O)N[C@@H]([C@@H](C)O)C(=O)N[C@@H]([C@@H](C)O)C(=O)N[C@@H](Cc2ccc(O)cc2)C(=O)N1)[C@@H](C)CC)[C@@H](C)O)C(N)=O [StIP-4] |  |  |
